According to paper PMC9343461, “Molecular and in vivo studies of a glutamate-class prolyl-endopeptidase for coeliac disease therapy” (Nature Communications, 2022):
Read-outs that look alike come from different tables or passages of the source. Square brackets hold non-standard residues; d marks the D form. Peptide text beside a SMILES is read from it. * marks the point of attachment. Sta = CC(C)C[C@H](N)[C@@H](O)CC(=O)O; Isovaleryl = CC(C)CC(=O)*

Key:
[1] = target: T1, neprosin (mature catalytic domain, recombinant) (Nepenthes ventricosa x Nepenthes alata, UniProt C0HLV2); assay: fluorogenic peptide cleavage (FS6-QPQL), inhibition curve; assay type: biochemical
T1 construct: Mature catalytic domain S129-Q380 from autolysis of pro-neprosin at P128-S129 (pro-domain R25-P128 removed); C-terminal Ala-Ile-Ala plus His6 tag kept; expressed in human Expi293F cells; glycosylated at N145 and N152; monomer

[2] = target: T2, mature neprosin (catalytic domain, S129-Q380) with C-terminal His6 tag (Nepenthes x ventrata, UniProt C0HLV2 129-380, N-linked glycans at N145 and N152); assay: crystal structure; orthorhombic crystals of pro-neprosin (native and Lu-Xo4 derivative), polypeptide cleaved at P128-S129; protein in 20 mM Tris-HCl pH 7.5, 150 mM NaCl; reservoir 0.1 M sodium acetate pH 4.0, 22% PEG 6000, 10% isopropanol, 20 °C; conditions: both partners purified
T2 construct: neprosin from Nepenthes x ventrata, UniProt C0HLV2, catalytic domain S129-Q380 released by cleavage at P128-S129; C-terminal purification tag, numbered A401-I402-A403 + H404-H409; written as a part because it lies in the active-site cleft of a symmetry mate; also called neprosin CD; mature enzyme; source: human Expi293F cells; pro-neprosin purified (Ni-NTA), autolysis at pH 2.5, then SEC; in the …
T2 sequence: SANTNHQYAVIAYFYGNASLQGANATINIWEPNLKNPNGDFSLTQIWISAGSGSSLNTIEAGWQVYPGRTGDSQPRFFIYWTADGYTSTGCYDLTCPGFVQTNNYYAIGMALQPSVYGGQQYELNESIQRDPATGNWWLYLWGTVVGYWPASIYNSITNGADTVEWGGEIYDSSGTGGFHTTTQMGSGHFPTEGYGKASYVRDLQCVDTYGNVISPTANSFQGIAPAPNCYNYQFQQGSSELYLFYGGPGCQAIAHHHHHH

## CC(C)CC(=O)N[C@H](C(=O)N[C@H](C(=O)N[C@@H](CC(C)C)[C@@H](O)CC(=O)N[C@@H](C)C(=O)N[C@@H](CC(C)C)[C@@H](O)CC(=O)O)C(C)C)C(C)C [pepstatin A] (Isovaleryl-VV[Sta]A[Sta]-OH)
[1]; 50 nM neprosin, 10 μM FS6-QPQL, 100 mM glycine pH 3.0, 37 °C, pre-incubated >1 h (pre-incubation stated for the inhibitor screen)
  IC50: 140 µM

## O=[N+]([O-])c1ccc(OCC2CO2)cc1 (stereo not drawn) [EPNP, 2-[(4-nitrophenoxy)methyl]oxirane]
[1]
  IC50: 480 µM

B1: neprosin pro-domain (PD, R25-P128) (domain or fragment, Nepenthes x ventrata, UniProt C0HLV2 25-128, looked up)
chain: RSIQARLANKPKGTIKTIKGDDGEVVDCVDIYKQPAFDHPLLKNHTLQMQPSSYASKVGEYNKLEQPWHKNGECPKGSIPIRRQVITGLPVVKKQFPNLKFAPP
notes: neprosin from Nepenthes x ventrata, UniProt C0HLV2, N-terminal pro-domain R25-P128: globular part A29-G112 and linker L113-P128; Defined in the map from A29 onwards; Y77-N86 and N122 onwards are disordered; also called cleaved PD; source: human Expi293F cells; pro-neprosin purified (Ni-NTA, SEC), found cleaved at P128-S129 in the crystals
[2]
  binding result: binds
